Assay results: patent US7557211B2, “8H-imidazo[4,5-D]thiazolo[4,5-B]pyridine based tricyclic compounds and pharmaceutical compositions comprising same” (Bristol-Myers Squibb Company, priority 2004, dated 2009)

System: T98
Experiment: Ames testing
Assay type: cell-based
Details: T98 with S9 activation
Method: A60.7 (370 mg) was dissolved in trifluoroacetic acid and stirred at 50° C. for 2h and 45 min. then at 60° C. for 2 h, then overnight at room temperature. The solvent was removed under reduced pressure and co-evaporated with diethyl ether (2×). Ether (˜20 mL) was added and the mixture sonicated for 1 min. The crude product was collected by filtration and rinsed with an additional portion of ether and dried under vacuum to yield 130 mg of a pale yellow solid. The crude product was washed with several portions of saturated aqueous sodium bicarbonate then water and dried under vacuum. The crude product was purified by automated reverse phase HPLC. The appropriate fractions were combined and azeotroped with heptane to produce 43 mg of a pale yellow solid. The solid was treated with a few milliliters of saturated aqueous sodium bicarbonate solution rinsed with water and dried under vacuum over phosphorus pentoxide and subsequently rinsed with several portions of diethyl ether and dried to yield 36 mg of the desired product. (Caution: This material was subjected to Ames testing and found to be positive in T98 with S9 activation. Suitable precautions should be taken in handling this material) 1H NMR 400 MHz d^6DMSO δ: 8.26 s, 1H, 8.14-8.07 m, 2H, 7.62-7.53, m, 3H, 6.90-6.80, br s, 2H, 4.02, s, 3H.

## Cn1cnc2c(N)nc3nc(-c4ccccc4)sc3c21 [Example A60, 8-methyl-2-phenyl-8H-imidazo[4,5-d]thiazolo[4,5-b]pyridin-5-amine]
  Ames testing: positive
